System: humane Spermien
Experiment: Sperm chemotaxis flat capillary assay (cell density in capillary)
Format: cell-based, human
Method: Gefrorene Samenproben von fünf gesunden Spendern wurden aus der California Cryobank (Los Angeles, CA, USA) erhalten und für Bioassays gemäß den World Health Organization-Richtlinien (World Health Organization: Laboratory for the examination of human serum and semen-cervical mucus interaction, Cambridge University Press (1993)) vorbereitet. Nachdem die Suspensionen auf 37 °C für 10 Minuten gebracht worden waren, wurde jede Probe in HEPES-gepufferter humaner Tubarflüssigkeit (HTF; Irvine Scientific, Santa Ana, CA, USA) überführt und auf 10^7 Zellen/ml eingestellt. Die Lösungen wurden dann bei 37 °C in einer 5 %-igen CO2-Atmosphäre aufbewahrt und innerhalb von 30 Minuten für Experimente verwendet (P. Quinn, Journal of Assisted Reproductive Genetics 12, 97-105 (1995)). Die Reaktionen von Sperma auf Bourgeonal wurde (a) durch computer-assisted video motion analysis (CAVMA) gemessen, um Veränderungen in der Schwimmgeschwindigkeit (Spermaaktivierung) zu detektieren, und (b) in einem flat capillary-Assay für die Chemotaxis in der Nähe einer Diffusionsmaterialquelle untersucht. Für jede Test-oder Kontroll-Behandlung wurden fünf wiederholte Experimente unter Verwendung von Sperma der fünf Spender durchgeführt. Die Daten der Bioassays wurden statistisch durch Ein-Weg-Varianzanalyse (ANOVA) unter Verwendung eines post-hoc Scheffe-Tests (R. W. Day and G. P. Quinn, Ecol. Monogr. 59, 433-463 (1989)) analysiert. Eine Bonferroni-Korrektur wurde zum Angleichen der α-Levels für multiple Vergleiche verwendet.
Zur Untersuchung der Spermien-Chemotaxis wurden Kammern mit vier getrennten Kompartimenten verwendet, wobei die Kapillar-Methode von Adler (J. Adler, Science 153, 708-716 (1966); J. Adler, Journal of General Microbiology 74, 77-91 (1973)) modifiziert wurde. Jedes Kompartiment bestand aus zwei durch einen Kanal verbundenen Vertiefungen. Die Spermienproben (10^6 Zellen/ml) wurden jeweils in den Vertiefungen vorgelegt. Ein flaches 6 µl-Mikrokapillarröhrchen (Drummond Scientific Co.), das entweder Test- oder Kontrolllösung enthielt, wurde in den Kanal eingeführt, wobei seine beiden Enden die frischen Spermien-Suspensionen innerhalb der zwei Vertiefungen berührten. Nach vier Stunden Inkubation bei 37 °C wurden die Inhalte jeder Kapillare in die Vertiefung eines Toxoplasmose-Objektträgers transferiert, hitzefixiert und mit 0,1 Acridin-Orange 1 Minute lang gefärbt. Zellzählungen wurden dann unter Verwendung eines Olympus-BH2-Mikroskopes, das für Phasenkontrast- und Epifluoreszenz-Applikationen ausgerüstet war (J. A. Riffell, P. J. Krug, R. K. Zimmer, Journal of Experimental Biology 205, 1439-1450 (2002); C. C. Gee and R. K. Zimmer-Faust, Journal of Experimental Biology 200, 3185-3192 (1997)), bei 67-facher Vergrößerung durchgeführt.
Zur Bestimmung der Chemoattraktion von Spermien und des Effekts eines Antagonisten wurde Bourgeonal allein bei 10^-7 M und in Kombination mit 10^-6, 10^-7, 10^-8 oder 10^-9 M n-Undecanal getestet. Während der Durchführung der Chemotaxis-Bioassays wurde das Spermienverhalten innerhalb eines Bereiches von 300 µm vor jeder Kapillarspitze 30 Sekunden lang auf Video aufgenommen. Die Videoaufnahme begann 10 bis 15 Minuten nach dem Experimentbeginn, um die Bildung eines chemischen Gradienten zu ermöglichen. Die Spermien-Orientierung zum Gradienten hin wurde unter Verwendung von CAVMA quantifiziert. […]

Row | EC50 (Homo sapiens, Sperm, 4 h, 37 °C, read-out: ED50 (Konzentration, die die halbmaximale Antwort hervorruft), Zelldichte) [nM] | SMILES | Effekt auf das Spermienverhalten, Zelldichte (10^-7 M alone, P > 0,99) | Zelldichte als Antwort auf 10^-7 M Bourgeonal relativ zur HTF-Kontrolle (co-applied with 10^-6, 10^-7 or 10^-8 M n-Undecanal, P > 0,99) | Konzentration ohne weiteren Anstieg der Zelldichte | Konzentrationen mit signifikanten Antworten im Verhältnis zur HTF-Kontrolle, Zelldichte (Scheffé test P ≤ 0,03)
1 |  | CCCCCCCCCCC=O [n-Undecanal] | keinen messbaren Effekt | nicht signifikant erhöht |  | 
2 | 30 | CC(C)(C)c1ccc(CCC=O)cc1 [Bourgeonal] |  |  | > 10^-6 M | ≥ 10^-8 M

Reference: EP1551873B1, “AGONISTS AND ANTAGONISTS OF THE HUMAN ODORANT RECEPTOR OR17-4 AND USES THEREOF” (Symrise AG, priority 2002, dated 2004)
